Columns and labels:
[1] = system: PMAT-like uptake in L. salivarius biofilms; assay: IDT307 fluorophore uptake (PMAT-like) in L. salivarius biofilms; format: cell-based, Lactobacillus salivarius; details: for uptake of IDT307-associated fluorescence: 100 μM; for attenuation of IDT307 fluorophore uptake: 1 mg/ml, 24 hour biofilm; for inhibition of IDT307 uptake: early and late biofilms
Excerpt: For measurement of PMAT-like function, the IDT307 fluorophore-based Neurotransmitter Uptake Assay Kit (product #R8173, Molecular Devices, Sunnyvale, CA, USA) was used with modification. As it is intended for studies with mammalian cells, the kit recommends the use of phenol red-free Hank's Balanced Salt Solution (HBSS). Phenol red-free Iscove's Modified Dulbecco's Medium (IMDM; product #21056-023, Life Technologies, Carlsbad, CA, USA) was substituted for HBSS. […] IMDM was selected as it is a nutrient-rich, protein-free medium used in tissue culture that allows for robust growth of a wide variety of bacterial species in the absence of any protein additives common to most microbiology media.
(§1) At the start of the assay, 0.2 ml of stationary phase overnight bacterial growth was inoculated into 9.8 ml of pre-warmed MRS, thoroughly mixed, and 0.2 ml aliquots added to individual wells of Corning flat clear-bottomed 96 well microplates (product #3904, Corning, Inc., Corning, NY, USA). Plates were then placed into a 37° C. humidified incubator. Following static incubation for either 6 or 24 hours, plates were removed from the incubator and the well supernatants were gently removed leaving the bacterial biofilm intact on the bottom surface of the individual clear plate wells. Subsequently, the PMAT-specific fluorophore IDT307 (Molecular Devices) or the OCT-specific fluorophore ASP^+ (Sigma-Aldrich) dissolved in IMDM and pre-warmed to 37° C. was gently added to appropriate wells (added along the well side so as not to disturb the biofilm). The plate was immediately placed into a BioTek Synergy H1 reader (Winooski, VT, USA) and measured using Gen5 software at the time intervals shown in the FIGS. 4-7. All assays were done at 37° C. unless otherwise noted and reads were performed as bottom fluorescence in relative fluorescence units (RFU). For IDT307, the chemical and masking dye were supplied pre-measured and the amount of IMDM used as a diluent was the same as indicated for the use of HBSS. […] Drug Metab Dispos. 2015; 43(11):1773-80, herein incorporated by reference, with the minor modification that the fluorophore/masking dye combination were prepared as follows: 100 μl of a 2 mg ASP^+ stock solution per ml of distilled water was first added to 9.9 ml of IMDM and mixed, followed by the addition of 10 μl of a 10 mM Trypan blue solution. The excitation/emission wavelengths used for IDT307 and ASP^+, respectively, were 440 nm/520 nm and 475 nm/609 nm.
(§2) Plates were prepared as above in Example 4 and following 6 hours (FIGS. 8A and B for PMAT and OCT respectively) or 24 hours (FIGS. 8C and D for PMAT and OCT respectively) of incubation the media was gently removed and replaced with 100 μl of pre-warmed IMDM media with or without different concentrations of fluoxetine. The concentrations of fluoxetine were 0.3125 mM, 0.625 mM, 1.25 mM, or 2.5 mM. The plate was then incubated at 37° C. for 30 minutes. Following incubation, 100 μl of pre-warmed fluorophore was added to the appropriate wells. The plate was then immediate placed into the fluorescence reader and measured at 37° C.
(§3) Two other antidepressant drugs that are chemically unrelated to fluoxetine, duloxetine and amitriptyline, were tested for their action on PMAT- and OCT-like functionalities in Lactobacilli to determine if they may also be used as inhibitors. Cells were grown in 96-well plates for 24 hours to allow for biofilm formation as above. […] IDT307 or ASP^+ was then used to measure the effects of each antidepressant drug on the cells ability to take up the fluorophore.

[2] = system: OCT-like uptake in L. reuteri; assay: ASP+ fluorophore uptake (OCT-like) in L. reuteri; format: cell-based, Lactobacillus reuteri; details: for attenuation of ASP+ fluorophore uptake: 2 mg/ml, 24 hour biofilm
Excerpt: The fluorophore ASP^+[4-(4-(diethylamino)styryl)-N-methylpyridinium iodide] was obtained from Sigma Chemical Company (Sigma #D4318) and used as described in Duan et al., Drug Metabolism and Disposition, volume 43, pages 1773-1780, 2015 (herein incorporated by reference) with a slight modification in the ratio of ASP^+ and Trypan blue used.
To verify if OCT-like uptake was responsible for the influx of ASP^+ in Lactobacilli, L. reuteri was pre-treated with D-22, an OCT inhibitor. In brief, Lactobacilli reuteri (obtained from American Type Culture Collection, #23272) were grown overnight at 37° C. in an aerobic environment in flat-bottomed 96-well plates in MRS medium. Following overnight incubation, the medium in each well was carefully removed in order to not overtly disturb the biofilm and a final concentration of 20 μM D-22 dissolved in IMDM or control medium was added. The plate was then incubated for 20 minutes at 37° C. in an aerobic environment. Next, ASP^+ fluorophore dissolved in IMDM was added and the plate was then placed into a BioTek Synergy H1 plate reader at 37° C. and read continuously for a total of 6 hours.
as §3

[3] = system: OCT-like uptake in L. salivarius biofilms; assay: ASP+ fluorophore uptake (OCT-like) in L. salivarius biofilms; format: cell-based, Lactobacillus salivarius; details: for inhibition of ASP+ uptake: early and late biofilms
Description: as §1, §2, §3

recombinant OCTs = details: 20 μM, HEK293 embryonic kidney cells; cited from earlier work
recombinant PMAT = biological target: T1, recombinant PMAT (Homo sapiens, UniProt Q7RTT9); details: 20 μM, HEK293 embryonic kidney cells; cited from earlier work
T1 construct: host or cells: HEK293 embryonic kidney cells (transfected, in the earlier report)
T1 sequence (Q7RTT9 1-530): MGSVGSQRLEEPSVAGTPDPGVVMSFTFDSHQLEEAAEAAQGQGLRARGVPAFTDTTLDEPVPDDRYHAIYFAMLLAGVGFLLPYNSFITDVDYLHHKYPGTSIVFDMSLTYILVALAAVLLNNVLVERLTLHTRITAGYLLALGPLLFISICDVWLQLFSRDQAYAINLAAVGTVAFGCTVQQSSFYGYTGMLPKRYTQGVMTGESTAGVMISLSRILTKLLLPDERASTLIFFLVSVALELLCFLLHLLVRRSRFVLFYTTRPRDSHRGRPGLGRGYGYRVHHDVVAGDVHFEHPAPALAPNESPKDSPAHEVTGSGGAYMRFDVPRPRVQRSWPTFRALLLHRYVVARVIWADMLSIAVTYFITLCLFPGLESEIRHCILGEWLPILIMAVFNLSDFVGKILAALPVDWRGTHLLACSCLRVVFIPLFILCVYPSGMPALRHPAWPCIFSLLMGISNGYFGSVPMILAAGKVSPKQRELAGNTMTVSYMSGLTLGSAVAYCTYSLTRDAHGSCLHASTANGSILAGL

[4] = system: microbial communities of mice; assay: In vivo administration of fluoxetine, 16S rRNA sequencing of microbial communities; details: male mice, oral, daily for 28 days
Description: Fluoxetine was administered on a daily basis by the oral route to male mice for 28 days in order to determine if any modulation in microbial communities could be obtained.
To classify the microbial communities, the genomes of isolated bacteria were sequenced and compared. Genomic DNA isolation was obtained using the PowerSoil DNA Isolation Kit (MoBio, Carlsbad, CA) on cecal and fecal samples. Assays were performed in accordance with the manufacturer's protocol with the following modifications: samples were incubated at 70° C. for 10 minutes immediately after addition of the C1 solution and the initial vortex step was extended to 20 minutes to thoroughly homogenize the samples. The purified bacterial genomic DNA extracts were quantified using a Qubit 2.0 Fluorometer (Life Technologies, Carlsbad, CA), and stored at −20° C. in 10 mM Tris buffer. For Illumina sequencing, bacterial genomic DNA was amplified using the Earth Microbiome Project barcoded primer set, adapted for the Illumina HiSeq2000 and MiSeq by adding nine extra bases in the adapter region of the forward amplification primer that support paired-end sequencing. The V4 region of the 16S rRNA gene (Illumina, 515F-806R) was amplified with region-specific primers that included the Illumina flowcell adapter sequences. The reverse amplification primer also contained a twelve base barcode sequence that supported pooling of up to 2,167 different samples in each lane. Each 25 μl PCR reaction contained 12 µl of MoBio PCR Water (Certified DNA-Free), 10 μl of 5 Prime HotMasterMix (1×), 1 μl of Forward Primer ([…], […]), 1 μl Golay Barcode Tagged Reverse Primer (5 μM concentration, […]), and […]. The conditions for PCR were as follows: 94° C. for 3 minutes to denature the DNA, with 35 cycles at 94° C. for 45 s, 50° C. for 60 s, and 72° C. for 90 s; with a final extension of 10 min at 72° C. to ensure complete amplification. The PCR amplicons were quantified using PicoGreen (Invitrogen) and a plate reader. Once quantified, different volumes of each of the products were pooled into a single tube so that each amplicon was represented equally. This pool was then cleaned up using UltraClean® PCR Clean-Up Kit (MoBIO), and quantified using the Qubit (Invitrogen). After quantification, the molarity of the pool was determined and diluted down to 2 nM, denatured, and then diluted to a final concentration of […] with a 10% PhiX spike for sequencing on the Illumina MiSeq.
In total, 60 fecal samples, representing 20 samples for each time point (day 0, 15, and 28) with 10 samples for the control and treatment groups, respectively, were used for 16S rRNA gene amplicon sequencing using Illumina MiSeq with 151 bp paired-end sequencing technology. 16S rRNA gene PCR and library preparation and sequencing were completed at the Environmental Sample Preparation and Sequencing Facility at Argonne National Laboratory. Sequence analysis was performed using mothur version 1.39.3 following the mothur MiSeq SOP available at the mothur website. Briefly, contigs were joined with “make.contigs”, reads longer than 250 bp, harboring any ambiguous bases or with more than 8 consecutive homopolymers were excluded using “screen.seqs”. Reads were aligned to the SILVA NR128 reference database. Chimeric sequences were removed with “chimera.uchime” and the remaining reads were clustered into operational taxonomic units (OTUs) using a 97% similarity threshold and taxonomy was assigned to OTUs using the SILVA NR 128 reference database. […] For determination of differences between groups on community level, analysis of molecular variance (AMOVA) and analysis of similarity (ANOSIM) implemented in mothur were used. Heatmaps were generated with JColorGrid. For better taxonomic classification, the OTUs were searched against the 16S rRNA gene sequences of the Mouse Intestinal Bacterial Collection isolates (miBC) using BlastN.

[5] = system: PMAT-like uptake in L. reuteri; details: 2 mg/ml, 24 hour biofilm
Description: as §3

[6] = biofilms established over 24 hours
[7] = concentrations higher than 0.625 mM

NC[C@H](O)c1ccc(O)c(O)c1 [NE, norepinephrine]
uptake of IDT307-associated fluorescence ([1]; 6 hour biofilms): markedly inhibited

CN(C)CCC=C1c2ccccc2CCc2ccccc21 [Amitriptyline, amitriptyline]
attenuation of ASP+ fluorophore uptake [2]: much stronger inhibitory effect | attenuation of IDT307 fluorophore uptake [1]: much stronger inhibitory effect

CCN(CC)c1ccc(C=Cc2cc[n+](C)cc2)cc1.[I-] [ASP^+, 4-(4-(diethylamino)styryl)-N-methylpyridinium iodide]
time of intracellular fluorescence decay after maximum ([3]; 6 hour biofilms, 37° C.): 2 to 3 h | time to maximum fluorescence intensity ([3]; 6 hour biofilms, 37° C.): < 60 min | residence time of probe in biofilm [3, 6]: > 6 h

CCN1/C(=C/c2ccc3ccccc3[n+]2CC)C=Cc2ccccc21.[I-] [decynium-22]
ability of the ASP+ fluorophore to enter into the cells (fluorescence) ([2]; 20 μM, 20 min pre-incubation, overnight biofilm, read 6 hours, all time points): reduced the ability of the ASP^+ fluorophore to enter into the cells | serotonin uptake through recombinant OCTs (recombinant OCTs): block serotonin uptake | serotonin uptake through recombinant PMAT (recombinant PMAT): block serotonin uptake | peak increase in IDT307 uptake ([1]; 20 μM, early (6 hour) biofilms): blunted | peak increase in ASP+ uptake ([3]; 20 μM, early (6 hour) biofilms): blunted

CNCCC(Oc1ccc(C(F)(F)F)cc1)c1ccccc1 (stereo not drawn) [fluoxetine]
inhibition of IDT307 uptake ([1]; concentrations below 0.625 mM): concentration-dependent inhibition | inhibition of IDT307 uptake [1, 7]: total inhibition | overall effect on microbial communities [4]: shift of microbial communities towards dysbiosis | decrease of Lactobacillus OTU17 abundance under treatment ([4]; fecal samples): 7.4 fold | number of OTUs different between control and fluoxetine group ([4]; fecal samples): 121 OTUs | species richness and diversity estimators vs control group ([4]; fecal samples): No statistical significant differences | abundance of Firmicutes relative to Bacteroidetes ([4]; phylum level): trended (p=0.08) to be more abundant than Bacteroidetes | whole community level comparison with control (AMOVA and ANOSIM) ([4]; p=0.02 and p=0.05): statistically significant differences | inhibition of ASP+ uptake ([3]; concentrations below 0.625 mM): concentration-dependent inhibition | inhibition of ASP+ uptake [3, 7]: total inhibition

NCCc1c[nH]c2ccc(O)cc12 [serotonin]
uptake of IDT307-associated fluorescence ([1]; 6 hour biofilms): markedly inhibited

CN(C)c1ccc(-c2cc[n+](C)cc2)cc1.[I-] [IDT307, 4-[p-(Dimethylamino)phenyl]-1-methylpyridinium iodide]
time of intracellular fluorescence decay after maximum ([1]; 6 hour biofilms, 37° C.): 2 to 3 h | time to maximum fluorescence intensity ([1]; 6 hour biofilms, 37° C.): < 60 min | residence time of probe in biofilm [1, 6]: > 6 h

O=NO [sodium nitrite]
uptake of IDT307-associated fluorescence ([1]; 6 hour biofilms): inhibited the rapid rise in IDT307-associated fluorescence

CNCC[C@H](Oc1cccc2ccccc12)c1cccs1 [duloxetine]
attenuation of ASP+ fluorophore uptake [2]: larger attenuation of fluorophore uptake | attenuation of IDT307 fluorophore uptake [1]: some attenuation | attenuation of IDT307 fluorophore uptake [5]: larger attenuation of fluorophore uptake | attenuation of ASP+ fluorophore uptake ([3]; 1 mg/ml, 24 hour biofilm): some attenuation

Reference: US12152270B2, “Neurotransmitter transport in probiotics” (Iowa State University Research Foundation, Inc., priority 2017, dated 2024)
